Measured values from patent US20050203063A1, “Proteasome pathway inhibitors and related methods” (priority 2003, published 2005).
Read-outs that look alike come from different tables or passages of the source. Where a SMILES comes first, the peptide text is derived from it. The star is where a group is joined. Cbz = O=C(OCc1ccccc1)*

Assays:
Format in all cases: biochemical
[1] = tested on: cyclin-luciferase (cyc-luc) turnover, APC/C activation; test: cyc-luc turnover in interphase Xenopus extracts induced to enter mitosis by non-degradable cyclin B
Experimental: (§1) FIG. 1. Functional classification of inhibitors. Compounds that scored in the initial screen were reacquired as dry powders and retested in Xenopus extracts in 4 assays at 200 μM concentration (32) as described (6). […] (A) Compounds and cyclin-luciferase were added to interphase extracts, which were then induced to enter mitosis by addition of non-degradable cyclin B. Percent inhibition of cyc-luc turnover by each compound is coded according to the grayscale shown at the bottom of the figure; specific values are available in Table 1. (B) Extracts were pre-treated with non-degradable cyclin B to allow entry into mitosis prior to addition of test compound and reporter protein. (C) Interphase extracts were treated by addition of recombinant Cdh1 to activate cyc-luc turnover. (D) Interphase extracts were treated with recombinant axin to induce turnover of β-catenin-luciferase.
(§2) The “Cmpd” column corresponds to the numbers used in FIG. 1; “Class” refers to the class of inhibitor described in FIG. 1 and the text. Columns A-D show percent inhibition in the four assays described in FIG. 1. (A) Interphase extracts (B) Mitotic extracts (C) Interphase extracts stimulated with Cdh1 (D) Degradation of a β-catenin reporter protein in interphase extracts stimulated with recombinant axin. […] “ID#” refers to the identification number of the inhibitor obtained from the NCI (prefaced by NSC) or Chembridge (prefaced by C).
Extracts were rapidly thawed and diluted to a final concentration of 75% in extract buffer (XB) just prior to assay (XB; 100 mM KCl, 0.1 mM CaCl2, 1 mM MgCl2, 10 mM potassium HEPES, pH 7.7, 50 mM sucrose). Extracts were kept on ice and supplemented with 1 mg/ml bovine ubiquitin (Sigma) unless otherwise stated. Cyc-luc expressed in reticulocyte lysate was diluted 1/200 for most assays. High-throughput screening utilized the bacterially expressed and purified cyclin-luc fusion protein, which was added to extracts at a final concentration of 0.1 μg/ml. To induce entrance into mitosis, cyclin BΔ90 protein was added to a final concentration of 10 μg/ml. For the dose response analysis, inhibitors were purchased from Calbiochem (San Diego, Calif.) and dissolved in DMSO as 10 mM stocks. Cyclin-luciferase and cyclin BΔ90 were mixed with interphase extract and placed on ice. Inhibitors were then added to extracts to yield a final DMSO concentration of 1%. 10 μl aliquots of extract were distributed into 384-well white Cliniplates (Labsystems), and cell cycle progression was initiated by warming the samples to room temperature. After 60 minutes, 30 μl of luciferin reagent (20 mM tricine pH 7.8, 470 μM D-Luciferin [Molecular Probes]), 270 μM Coenzyme A, 0.1 mM EDTA, 33 mM DTT, and 530 μM ATP) was added using a multidrop dispenser (Labsystems). Luminescence was measured on an Analyst plate reader (LJL Biosystems). The values for 3 replicates were averaged. For the dose response analysis, percent inhibition was calculated as 100*(T−M)/(I−M) where T equals the test value for the inhibitor, M equals the value in a mitotic extract lacking inhibitor, and I equals the value in an interphase extract. For certain experiments, methylated ubiquitin was added to interphase extracts at a concentration of 1 mg/ml in the presence or absence of added unmodified ubiquitin (1 mg/ml) used as competitor. Cyclin-luciferase and cyclin BΔ90 were then added. After 60 minutes, the reactions were stopped and analyzed as described above.
Dry compounds were redissolved at 20 mM concentration in DMSO, or a 50:50 water:DMSO mixture in certain cases. These compounds were then diluted ten-fold in XB and mixed thoroughly. For the assay in FIG. 1A, chilled interphase extract was mixed with cyclin BΔ90 (10 μg/ml) and cyc-luc (0.1 μg/ml) in bulk and then 27 μl of extract was pipetted to each well of a chilled 384-well plate.

[2] = tested on: cyclin-luciferase (cyc-luc) turnover, activated APC/C; test: cyc-luc turnover in mitotic Xenopus extracts (pre-treated with non-degradable cyclin B)
Experimental: as §1, §2
(§3) Dry compounds were redissolved at 20 mM concentration in DMSO, or a 50:50 water:DMSO mixture in certain cases. These compounds were then diluted ten-fold in XB and mixed thoroughly. For the assay in FIG. 1A, chilled interphase extract was mixed with cyclin BΔ90 (10 μg/ml) and cyc-luc (0.1 μg/ml) in bulk and then 27 μl of extract was pipetted to each well of a chilled 384-well plate. Three microliters of each compound (diluted in XB) was then added to each well, and then compounds mixed thoroughly. Plates were warmed to room temperature. After 70 minutes, 5 μl aliquots were transferred to another plate, and then 30 μl of luciferin reagent was added to each well and luminescence measured. Percent inhibition was calculated as described above. The reported values represent the average of three independent measurments. For the assay in FIG. 1B, interphase extracts were treated with 10 μg/cyclin B 90 for 50 minutes at room temperature and then chilled on ice. Cyc-luc was then added, and then 27 μl of extract was pipetted to each well of a chilled 384-well plate. Three microliters of each compound (diluted in XB) was then added to each well, and then compounds mixed thoroughly. Plates were warmed to room temperature. After 60 minutes, 5 μl aliquots were transferred to another plate, and then 30 μl of luciferin reagent was added to each well and luminescence measured. For the assay in FIG. 1C, recombinant Cdh1 (0.1 μg/ml) and cyc-luc were added to chilled interphase extracts. Extracts were then pipetted and compounds added as above. Plates were warmed to room temperature and incubated for three hours, following which luminescence was measured as above. For the assay in FIG. 1D, chilled interphase extracts received recombinant axin and beta-catenin-luciferase reporter as described (8). Extracts were aliquoted to chilled plates and compounds distributed as described above. Plates were warmed to room temperature, incubated for three hours, and luminescence measured.

[3] = tested on: β-catenin-luciferase turnover (substrate of the SCFβ-TRCP ubiquitin ligase); test: β-catenin-luciferase turnover in interphase Xenopus extracts stimulated with recombinant axin
Experimental: as §1, §2, §3

[4] = tested on: Cdh1-stimulated cyc-luc proteolysis (APC/C); test: cyc-luc turnover in interphase Xenopus extracts stimulated with recombinant Cdh1
Experimental: as §1, §2, §3

[5] = 200 μM compound, added to interphase extracts then induced to enter mitosis, average of three measurements
[6] = 200 μM compound, extracts in mitosis before addition of compound
[7] = 200 μM compound, negative values reflect stimulation of proteolysis

| SMILES | percent inhibition of cyc-luc turnover, (A) Interphase extracts [1, 5] [%] | percent inhibition of cyc-luc turnover, (B) Mitotic extracts [2, 6] [%] | percent inhibition, (D) Degradation of a β-catenin reporter protein in interphase extracts stimulated with recombinant axin ([3]; 200 μM compound) [%] | percent inhibition of cyc-luc turnover, (C) Interphase extracts stimulated with Cdh1 [4, 7] [%] | other results |
| --- | --- | --- | --- | --- | --- |
| ON=c1[nH]cnc2[nH]cc(Br)c12 [Compound 40] | 42 | 0 | 3 | −6 | – |
| O=c1[nH]cnc2c1ccc1[nH]ncc12 [Compound 67] | 53 | 3 | 3 | −8 | – |
| Nc1ncnc2c1ncn2C1OC2COP(=O)(O)OC2C1O (stereo not drawn) [Compound 34] | – | – | – | – | percent inhibition of cyc-luc turnover, (A) Interphase extracts ([1]; 200 µM): 100%; percent inhibition of cyc-luc turnover, (B) Mitotic extracts ([2]; 200 µM): 0%; percent inhibition, (D) Degradation of a β-catenin reporter protein in interphase extracts stimulated with recombinant axin ([3]; 200 µM): 6%; percent inhibition of cyc-luc turnover, (C) Interphase extracts stimulated with Cdh1 ([4]; 200 µM): −8% |
| Nc1nc2c(c(=O)[nH]1)c1c(N)ncnc1n2C1OC(CO)C(O)C1O (stereo not drawn) [Compound 57] | 100 | 4 | 60 | 0 | – |
| O/N=C(/C=N/O)SCCSC(/C=N/O)=N/O [Compound 77] | 100 | 4 | 0 | −12 | – |
| Nc1ncnc2c1c(Cl)cn2[C@@H]1O[C@H](CO)[C@@H](O)[C@H]1O [Compound 39] | 100 | 9 | 67 | −7 | – |
| O=c1[nH]c(O)nc2cc3[nH]ncc3cc12 [Compound 62] | 84 | 0 | 0 | −8 | – |
| O[Si](c1ccccc1)(c1ccccc1)c1ccccc1.O[Si](c1ccccc1)(c1ccccc1)c1ccccc1.O[Si](c1ccccc1)(c1ccccc1)c1ccccc1.[O]=[V] [Compound 61] | 77 | 8 | 2 | −8 | – |
| N#Cc1c(NN)n(C2OC(CO)C(O)C2O)c2ncnc(N)c12 (stereo not drawn) [Compound 51] | 100 | 0 | 30 | 0 | – |
| NC(=O)c1ncn(C2OC(CO)C(O)C2O)c1C(N)=O (stereo not drawn) [Compound 82] | 100 | 0 | 0 | 0 | – |
| O=C(NNC(=S)NC(=O)C12CC3CC(CC(C3)C1)C2)c1ccncc1 [Compound 13] | 75 | 0 | 0 | −9 | – |
| CC(=O)Nc1ncnc2[nH]ncc12 [Compound 54] | 54 | 3 | 0 | −6 | – |
| CC[C@H](CO)Nc1nc(NCc2ccccc2)c2ncn(C(C)C)c2n1 [roscovitine, reference compound] | – | – | – | – | effect on loss of cyc-luc activity / activation of latent APC/C activity (in words) [1]: blocked; effect on cyc-luc proteolysis in mitotic extracts (in words) [2]: ineffective |
| CC(C)C[C@@H](C=O)NC(=O)[C@H](CC(C)C)NC(=O)[C@H](CC(C)C)NC(=O)OCc1ccccc1 [MG132, reference compound] (Cbz-Leu-Leu-Leu-aldehyde) | – | – | – | – | effect on loss of cyc-luc activity / activation of latent APC/C activity (in words) ([1]; assay validation, inhibitor added to interphase extract before mitotic entry): partially inhibited |
| O=S(=O)(O)c1ccc2c(/N=N/c3ccccc3)c(O)ccc2c1 [Compound 18] | 73 | 4 | 0 | −7 | – |
| Nc1ncnc(Nc2ccc(S(N)(=O)=O)cc2)n1 [Compound 25] | 66 | 3 | 0 | −6 | – |
| O=C1c2ccccc2C2=NNC3=C(S(=O)(=O)O)C=CC1C23 (stereo not drawn) [Compound 10] | 33 | 0 | 21 | −4 | – |
